Test results from patent EP2845588A1, “PIN1 inhibitors for use in the prevention and/or treatment of theileriosis, and related applications” (Centre National de la Recherche Scientifique (CNRS), priority 2013, dated 2015).

Legend:
HepG2 cells = experiment: Soft agar colony forming assay, HepG2; type: cell-based, human; details: number of colonies per plate
Protocol: All infected bovine cell lines used in this study were previously described: TBL3 cells were derived from in vitro infection of the spontaneous bovine-B lymphosarcoma cell line, BL3, with Hissar stock of T.annulata. The TpMD409 lymphocyte cell line are infected with T. parva. The culture conditions of these cell lines were previously described by Moreau et al., 1999. Cells were cultured in RPMI 1640 (Gibco-BRL, Paisley, UK), supplemented with 10% heat-inactivated Fetal calf serum, 4mM L-Glutamine, 25mM HEPES, 10µM β-mercaptoethanol and 100µg/ml penicillin/streptomycin in a humidified 5%CO2 atmosphere at 37°C. […] Cell numbers, as judged by Trypan Blue exclusion test, were determined by counting cells using a Countess automated cell counter (Invitrogen, CA, USA). […]
A two-layer soft agar culture system was used. […] Cultures were incubated in humidified 37°C incubators with an atmosphere of 5%CO2 in air, and control plates were monitored for growth using a microscope. At the time of maximum colony formation (10 days in culture), final colony numbers were counted manually after fixation a staining with 0.005% Crystal Violet (Sigma, Ref.: C3886).

host bovine bPIN1 = experiment: Quantitative PCR of host bPIN1 transcripts; type: cell-based
Protocol: (§1) Total cellular RNAs were extracted using an RNeasy Plus Mini Kit (Qiagen, Hilden, Germany) and parasite RNAs were extracted using the classical Trizol Protocol. cDNA synthesis was performed with the Reverse Transcriptase Superscript III (Invitrogen, CA, USA).
(§2) Quantitative PCR amplification was performed in the ABI 7500 machine (Applied Biosystems, CA, USA) using the Sybr Green reagent (Applied Biosystems, CA, USA) using the primers listed in Table 5 below. The detection of a single product was verified by dissociation curve analysis. Relative quantities of mRNA were analyzed using the delta Ct method. The βactin qPCR was used for normalization. Table 5: qPCR primers

TpPIN protein = experiment: Immunoblot of TpPIN protein in nuclear and cytoplasmic fractions of T. parva-infected cells; type: cell-based; details: nuclear and cytoplasmic fractions of T. parva-infected TpM409 B cells
Protocol: Cells were lysed in the following buffer: 5mM Tris HCL pH7.5, 40mM KCL, 2mM MgCL2, 0.5mM EDTA, 0.05mM Spermidine and Spermine, 0.1% NP-40, H2O. Lysates were incubated for 5min on ice and centrifuged for 10min at 5000rpm. The supernatant constitutes the Cytoplasmic fraction and the pellet constitutes the nuclear fraction.
Total proteins were extracted with Laemmli lysis, sonicated: 15 secs ON / 30 secs OFF for 5 min, resolved on 10.5% acrylamide/bis-acrylamide SDS-PAGE gels and transferred to nitrocellulose membranes (Thermo Fisher Scientific, MA, USA) in transfer buffer. Protein transfer was assessed by Ponceau-red staining. Membranes were blocked in Tris-buffered saline pH7.4 containing 0.1% Tween-20 and 5% milk for 1 h at room temperature. Incubations with primary antibodies were carried out at 4°C overnight using antibody dilutions as manufacturer recommendations in Trisbuffered saline pH7.4, 0.05% Tween-20 and 5% milk. Following 1 h incubation with an anti-rabbit or anti-mouse peroxidase-conjugated antibody (Sigma, St Louis, MO, USA) at room temperature, proteins were detected by chemiluminescence (Thermo Fisher Scientific, MA, USA) following the manufacturer's instructions. […]

TaPIN transcripts = experiment: Quantitative PCR of TaPIN transcripts in T.annulata-infected cells; type: cell-based
Protocol: as §1, §2

[1] = system: PKM2, HIF1α, Hexokinase II and PDK1 in TBL3 cells; experiment: Immunoblot of PKM2, HIF1α, Hexokinase II and PDK1 in TBL3 cells; type: cell-based, bovine
Protocol: Total proteins were extracted with Laemmli lysis, sonicated: 15 secs ON / 30 secs OFF for 5 min, resolved on 10.5% acrylamide/bis-acrylamide SDS-PAGE gels and transferred to nitrocellulose membranes (Thermo Fisher Scientific, MA, USA) in transfer buffer. Protein transfer was assessed by Ponceau-red staining. Membranes were blocked in Tris-buffered saline pH7.4 containing 0.1% Tween-20 and 5% milk for 1 h at room temperature. Incubations with primary antibodies were carried out at 4°C overnight using antibody dilutions as manufacturer recommendations in Trisbuffered saline pH7.4, 0.05% Tween-20 and 5% milk. Following 1 h incubation with an anti-rabbit or anti-mouse peroxidase-conjugated antibody (Sigma, St Louis, MO, USA) at room temperature, proteins were detected by chemiluminescence (Thermo Fisher Scientific, MA, USA) following the manufacturer's instructions. The following antibodies were used: Rabbit anti-TaPIN (Home-made antibody, Proteogenix, Peptide used: […]-Cys), rabbit anti-PIN1 (Cell Signaling, Ref: 3722), rabbit anti-TaActin (kindly provided by Jake Baum, Australia), rabbit anti-c-Jun (Santa Cruz, CA, USA Ref: sc1694), mouse anti-αTubulin (Sigma, Ref: T9026), , rabbit anti-HIF1α (Abcam, Cambridge, UK; Ref: ab75918), rabbit anti-Hexokinase II (Cell Signaling, Ref: C64G5), rabbit anti-PDK1 (Cell signaling, Ref: C47H1), mouse anti-HA (Roche, Ref: 11583816001), rabbit anti-FBW7 (Bethyl Laboratories, Ref: A301-721A), rabbit anti-Histone H3 (Abcam, Ref: ab1791), rabbit anti-PKM2 (Abcam, Ref: ab38237), mouse anti-Actin (Sigma, Ref: A1978) and monoclonal anti-FLAG M2-Peroxidase (Sigma, Ref: A8592). c-Jun, FBW7 or PKM2/Actin ratios were calculated after Western blot signal quantification with the Plot Lanes Analysis tool of Image J software (National Institutes of Health, Bethesda, MD, USA).

[2] = system: TpPIN1 (TP01_0114) transcripts; experiment: Quantitative PCR of TpPIN transcripts in T.parva-infected cells; type: cell-based
Protocol: as §1, §2

[3] = system: c-Jun and FBW7 ubiquitination in TBL3 cells; experiment: Ubiquitination of endogenous c-Jun and FBW7 in TBL3 cells; type: cell-based, bovine

## CC(C)(C)C1CCC(CC2=C(O)C(=O)c3ccccc3C2=O)CC1 (centres unmarked) [Buparvaquone, 2-((4-tert-butylcyclohexyl)methyl)-3-hydroxy-1,4-naphthoquinone]
HepG2 cells
  soft agar colony-forming potential of HepG2 cells: decreased
Host bovine bPIN1
  level of RNA transcripts encoding the host bovine bPIN1 protein: not affected
TpPIN protein
  TpPIN protein: decreased
TaPIN transcripts
  TaPIN transcripts: lost
[1]
  HIF1α protein expression: reduced
  PKM2 protein expression: reduced
[1]; HIF1α target gene
  Hexokinase II: reduced
  PDK1: reduced
[2]
  TpPIN1 transcripts: reduced
[3]; TBL3 cells
  ubiquitination of endogenous c-Jun protein: elevated
[3]; TBL3 cells overexpressing TaPIN A53P
  rescue of the drug effect on c-Jun ubiquitination by overexpressing the TaPIN A53P mutant: rescued
